Results: the supplement of paper PMC9938120

What was measured:
Test in all cases: drug sensitivity score (DSS3, normalised partial AUC of % inhibition dose-response) (DSS (score)); higher = more sensitive (stronger inhibition of viability); extreme values may be limits of the assay
[1] = tested on: FMOC22 (patient-derived mucinous ovarian cancer cells); conditions: 72 h; library: FO5A; assay format: 2D, 384-well, CellTiter-Glo
In short: (§1)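 Early-passage (under 10) patient-derived ovarian cancer cells were dispensed onto 384-well flat clear-bottom plates pre-plated with compounds at five concentrations spanning a 10,000-fold range, then incubated 72 h at 37 °C, 5% CO2. Viability was read with CellTiter-Glo, and the data were processed in Breeze. The drug sensitivity score is a partial area under the percent-inhibition dose-response curve divided by the log of the upper asymptote, with higher values meaning greater sensitivity.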

[2] = tested on: FMOC09 (patient-derived high-grade serous ovarian cancer cells); conditions: 72 h; library: FO5A; assay format: 2D, 384-well, CellTiter-Glo
In short: as §1

[3] = tested on: FMOC06 (patient-derived mucinous ovarian cancer cells); conditions: 72 h; library: FO5A; assay format: 2D, 384-well, CellTiter-Glo
In short: as §1

[4] = tested on: FMOC03 (patient-derived mucinous ovarian cancer cells); conditions: 72 h; library: FO5A; assay format: 2D, 384-well, CellTiter-Glo
In short: as §1

[5] = tested on: FMOC02_3 (patient-derived low-grade serous ovarian cancer cells); conditions: 72 h; library: FO5A; assay format: 2D, 384-well, CellTiter-Glo
In short: as §1

[6] = tested on: FMOC25_2 (patient-derived low-grade serous ovarian cancer cells); conditions: 72 h; library: FO5A; assay format: 2D, 384-well, CellTiter-Glo
In short: as §1

[7] = tested on: FMOC02_2 (patient-derived low-grade serous ovarian cancer cells); conditions: 72 h; library: FO5A; assay format: 2D, 384-well, CellTiter-Glo
In short: as §1

[8] = tested on: FMOC14 (patient-derived high-grade serous ovarian cancer cells); conditions: 72 h; library: FO5A; assay format: 2D, 384-well, CellTiter-Glo
In short: as §1

[9] = tested on: FMOC24 (patient-derived high-grade serous ovarian cancer cells); conditions: 72 h; library: FO5A; assay format: 2D, 384-well, CellTiter-Glo
In short: as §1

[10] = tested on: FMOC25_1 (patient-derived low-grade serous ovarian cancer cells); conditions: 72 h; library: FO4B; assay format: 2D, 384-well, CellTiter-Glo
In short: as §1

In the case of CC(=O)O[C@H]1C(=O)[C@@]2(C)[C@H]([C@H](OC(=O)c3ccccc3)[C@]3(O)C[C@H](OC(=O)[C@H](O)[C@@H](NC(=O)c4ccccc4)c4ccccc4)C(C)=C1C3(C)C)[C@]1(OC(C)=O)CO[C@@H]1C[C@@H]2O [Paclitaxel], the drug sensitivity score [1] is reported as 12.5, the drug sensitivity score [2] is reported as 13.6 and the drug sensitivity score [3] is reported as 10.1. For the same compound, the drug sensitivity score [4] was 11.9, the drug sensitivity score [5] was 17 and the drug sensitivity score [6] was 16.7. For the same compound, the drug sensitivity score [7] was 8.7, the drug sensitivity score [8] was 0.4 and the drug sensitivity score [9] was 0.1. For the same compound, the drug sensitivity score [10] was 6.7.
COc1cc(Nc2ncc(F)c(Nc3ccc4c(n3)NC(=O)C(C)(C)O4)n2)cc(OC)c1OC [Tamatinib] gave a drug sensitivity score [1] of 0, a drug sensitivity score [2] of 0.7 and a drug sensitivity score [3] of 0. For the same compound, the drug sensitivity score [4] was 2.5, the drug sensitivity score [5] was 9.6 and the drug sensitivity score [6] was 8.7. The drug sensitivity score [7] was 13, the drug sensitivity score [8] was 0 and the drug sensitivity score [9] was 5.3. For the same compound, the drug sensitivity score [10] was 7.2.
CN(CC(=O)N(Cc1ccc(C2CCCCC2)cc1)c1ccc(C(=O)O)cc1)S(=O)(=O)c1c(F)c(F)c(F)c(F)c1F [SH-4-54] was tested, and the drug sensitivity score [1] was 5.3, the drug sensitivity score [2] was 10.3 and the drug sensitivity score [3] was 9. It also gave a drug sensitivity score [4] of 6.2, a drug sensitivity score [5] of 8.8 and a drug sensitivity score [6] of 5.5. For the same compound, the drug sensitivity score [7] was 9.3, the drug sensitivity score [8] was 5.9 and the drug sensitivity score [9] was 6.2. The drug sensitivity score [10] was 6.9.
For COc1cccc(OCCCN)c1-c1cc(Nc2cnc(C#N)cn2)n[nH]1 [Prexasertib], the drug sensitivity score [1] was 19.6, the drug sensitivity score [2] was 19.5 and the drug sensitivity score [3] was 12.6. For the same compound, the drug sensitivity score [4] was 11.8, the drug sensitivity score [5] was 18.6 and the drug sensitivity score [6] was 19.1. It also gave a drug sensitivity score [7] of 15.1, a drug sensitivity score [8] of 22.6 and a drug sensitivity score [9] of 24.7. The drug sensitivity score [10] was 15.3.
Nc1ccn([C@@H]2O[C@H](CO)[C@@H](O)[C@@H]2O)c(=O)n1 [Cytarabine] showed a drug sensitivity score [1] of 6.4, a drug sensitivity score [2] of 6.9 and a drug sensitivity score [3] of 2.4. The drug sensitivity score [4] was 2.3, the drug sensitivity score [5] was 9.3 and the drug sensitivity score [6] was 6.3. The drug sensitivity score [7] was 8.3, the drug sensitivity score [8] was 0 and the drug sensitivity score [9] was 0.6. The drug sensitivity score [10] was 3.4.
CC(C)[C@H]1C(=O)N[C@@H](CCCNC(=N)N)C(=O)NCC(=O)N[C@@H](CC(=O)O)C(=O)N[C@H](Cc2ccccc2)C(=O)N1C [Cilengitide] was tested, and the drug sensitivity score [1] was 0, the drug sensitivity score [2] was 4.3 and the drug sensitivity score [3] was 0. For the same compound, the drug sensitivity score [4] was 0.1, the drug sensitivity score [5] was 1.3 and the drug sensitivity score [6] was 0. For the same compound, the drug sensitivity score [7] was 0, the drug sensitivity score [8] was 1.9 and the drug sensitivity score [9] was 2.4. For the same compound, the drug sensitivity score [10] was 0.
Compound Cn1cnc2c(F)c(Nc3ccc(Br)cc3Cl)c(C(=O)NOCCO)cc21 [Selumetinib] has a drug sensitivity score [1] of 7.2, a drug sensitivity score [2] of 10.6 and a drug sensitivity score [3] of 14.6. For the same compound, the drug sensitivity score [4] was 11.4, the drug sensitivity score [5] was 13.7 and the drug sensitivity score [6] was 8.1. It also gave a drug sensitivity score [7] of 12.9, a drug sensitivity score [8] of 1.3 and a drug sensitivity score [9] of 0.4. It also gave a drug sensitivity score [10] of 7.3.
C[C@@]1(C(=O)Nc2ccc(F)nc2)CCCN1c1nc(Nc2cc(C3CC3)n[nH]2)c2cccn2n1 gave a drug sensitivity score [1] of 9.5, a drug sensitivity score [2] of 14.7 and a drug sensitivity score [3] of 14.7. It also gave a drug sensitivity score [4] of 7, a drug sensitivity score [5] of 18.9 and a drug sensitivity score [6] of 14.6. The drug sensitivity score [7] was 14.3, the drug sensitivity score [8] was 2.2 and the drug sensitivity score [9] was 2.75. For the same compound, the drug sensitivity score [10] was 9.2.
For CN[C@@H]1C[C@H]2O[C@@](C)([C@@H]1OC)n1c3ccccc3c3c4c(c5c6ccccc6n2c5c31)C(=O)N[C@H]4O [UCN-01], the drug sensitivity score [1] was 15.9, the drug sensitivity score [2] was 20.7 and the drug sensitivity score [3] was 23.2. The drug sensitivity score [4] was 17.2, the drug sensitivity score [5] was 33.7 and the drug sensitivity score [6] was 34.4. For the same compound, the drug sensitivity score [7] was 33.1, the drug sensitivity score [8] was 19.8 and the drug sensitivity score [9] was 24.4. For the same compound, the drug sensitivity score [10] was 31.
With COc1cc(NS(C)(=O)=O)ccc1Nc1c2ccccc2nc2ccccc12 [Amsacrine] the drug sensitivity score [1] was 8.3, the drug sensitivity score [2] was 4.7 and the drug sensitivity score [3] was 4.5. The drug sensitivity score [4] was 6, the drug sensitivity score [5] was 7 and the drug sensitivity score [6] was 7.1. The drug sensitivity score [7] was 5.2, the drug sensitivity score [8] was 2.2 and the drug sensitivity score [9] was 8.05. The drug sensitivity score [10] was 8.2.
With O=C(O)c1ccc2c(c1)nc(Nc1cccc(Cl)c1)c1ccncc12 [Silmitasertib] the drug sensitivity score [1] was 6, the drug sensitivity score [2] was 4.5 and the drug sensitivity score [3] was 6.9. It also gave a drug sensitivity score [4] of 7, a drug sensitivity score [5] of 6.3 and a drug sensitivity score [6] of 5.2. For the same compound, the drug sensitivity score [7] was 4.1, the drug sensitivity score [8] was 4.9 and the drug sensitivity score [9] was 2.55. The drug sensitivity score [10] was 3.6.
CCN(CC)Cc1ccc2cc(COC(=O)Nc3ccc(C(=O)NO)cc3)ccc2c1 [Givinostat] was tested, and the drug sensitivity score [1] was 4.7, the drug sensitivity score [2] was 1.5 and the drug sensitivity score [3] was 5.2. The drug sensitivity score [4] was 6.1, the drug sensitivity score [5] was 5.9 and the drug sensitivity score [6] was 4. It also gave a drug sensitivity score [7] of 7.1, a drug sensitivity score [8] of 4.4 and a drug sensitivity score [9] of 5.45. For the same compound, the drug sensitivity score [10] was 5.2.
Compound CO[C@H](C(=O)[C@@H](O)[C@@H](C)O)[C@@H]1Cc2cc3cc(O[C@H]4C[C@@H](O[C@@H]5C[C@@H](O)[C@H](O)[C@@H](C)O5)[C@H](O)[C@@H](C)O4)c(C)c(O)c3c(O)c2C(=O)[C@H]1O[C@H]1C[C@@H](O[C@@H]2C[C@@H](O)[C@@H](O[C@@H]3C[C@](C)(O)[C@H](O)[C@@H](C)O3)[C@@H](C)O2)[C@H](O)[C@@H](C)O1 [Plicamycin] has a drug sensitivity score [1] of 5.1, a drug sensitivity score [2] of 2.6 and a drug sensitivity score [3] of 6.2. For the same compound, the drug sensitivity score [4] was 4.6, the drug sensitivity score [5] was 16.7 and the drug sensitivity score [6] was 29.1. The drug sensitivity score [7] was 9, the drug sensitivity score [8] was 10.1 and the drug sensitivity score [9] was 9. It also gave a drug sensitivity score [10] of 7.
In the case of O=C(Nc1c[nH]nc1-c1nc2ccc(CN3CCOCC3)cc2[nH]1)NC1CC1 [AT9283], the drug sensitivity score [1] is reported as 0.5, the drug sensitivity score [2] is reported as 5.7 and the drug sensitivity score [3] is reported as 2.8. For the same compound, the drug sensitivity score [4] was 3.4, the drug sensitivity score [5] was 9.3 and the drug sensitivity score [6] was 5.1. It also gave a drug sensitivity score [7] of 4.1, a drug sensitivity score [8] of 1.8 and a drug sensitivity score [9] of 4.7. It also gave a drug sensitivity score [10] of 0.1.
CC[C@@H]1C(=O)N(C)c2cnc(Nc3ccc(C(=O)NC4CCN(C)CC4)cc3OC)nc2N1C1CCCC1 [BI 2536] showed a drug sensitivity score [1] of 5.1, a drug sensitivity score [2] of 9.1 and a drug sensitivity score [3] of 2.1. It also gave a drug sensitivity score [4] of 5.2, a drug sensitivity score [5] of 9.3 and a drug sensitivity score [6] of 7.3. The drug sensitivity score [7] was 6.7, the drug sensitivity score [8] was 0.4 and the drug sensitivity score [9] was 2.25. The drug sensitivity score [10] was 5.8.
In the case of CC(C)[C@@H](CS(=O)(=O)C(C)C)N1C(=O)[C@@](C)(CC(=O)O)C[C@H](c2cccc(Cl)c2)[C@H]1c1ccc(Cl)cc1 [AMG-232], the drug sensitivity score [1] is reported as 0.8, the drug sensitivity score [2] is reported as 0 and the drug sensitivity score [3] is reported as 0. The drug sensitivity score [4] was 0, the drug sensitivity score [5] was 26 and the drug sensitivity score [6] was 13.1. The drug sensitivity score [7] was 14.9, the drug sensitivity score [8] was 0 and the drug sensitivity score [9] was 0. It also gave a drug sensitivity score [10] of 5.6.
